Measurements as given in patent USRE42013E1, “Macrocyclic modulators of the ghrelin receptor” (Tranzyme Pharma Inc., priority 2003, dated 2010).
pKi: −log10 of the molar value. Read-outs that look alike come from different tables or passages of the source.

Biological target: T1, human growth hormone secretagogue receptor (hGHS-R1a) (Homo sapiens, UniProt Q92847)
T1 construct: purchased PerkinElmer BioSignal #RBHGHSM, lot#1887; host or cells: HEK-293, stably transfected
Experiment: Competitive radioligand binding assay (ghrelin receptor), [125I]-ghrelin displacement
Experimental: The competitive binding assay at the human growth hormone secretagogue receptor (hGHS-R1a) was carried out analogously to assays described in the literature.
Multiscreen Harvest plates-GF/C (Millipore, #MAHFC1H60) • 4. […] Bottom seal (Millipore, #MATAH0P00) • 7. […] Binding Buffer: 25 mM Hepes (pH 7.4), 1 mM CaCl2, 5 mM MgCl2, 2.5 mM EDTA, 0.4% BSA Assay Volumes
Competition experiments were performed in a 300 μl filtration assay format. • 1. 220 μL of membranes diluted in binding buffer • 2. 40 μL of compound diluted in binding buffer • 3. […] Compound Handling
Compounds were provided frozen on dry ice at a stock concentration of 10 mM diluted in 100% DMSO and stored at −80° C. until the day of testing. On the test day, compounds were allowed to thaw at rt O/N and then diluted in assay buffer according to the desired test concentrations.
Plates were sealed with TopSeal-A, vortexed gently and incubated at rt for 30 min. The reaction was arrested by filtering samples through Multiscreen Harvest plates (pre-soaked in 0.5% polyethyleneimine) using a Tomtec Harvester, washed 9 times with 500 μL of cold 50 mM Tris-HCl (pH 7.4, 4° C.), and then plates were air-dried in a fumehood for 30 min. A bottom seal was applied to the plates prior to the addition of 25 μL of MicroScint-0 to each well. […] Results were expressed as counts per minute (cpm).
Data were analyzed by GraphPad Prism (GraphPad Software, San Diego, Calif.) using a variable slope non-linear regression analysis.
Compound structures for Tables 3A, 3B and 3D are presented with the various groups as defined for the general structure of formula I. For Tables 3B and 3D, in all entries, m, n and p are 0; X, Z1 and Z2 are each NH. For Table 3B, R1 is H for all entries. The tethers (T) are illustrated with the bonding to X and Z2 as indicated. The compounds themselves are shown for Table 3C.
• 1. […] Key Aspects of Method • 1. […] Results

[1] = Table 3B, binding at human ghrelin receptor, [125I]-ghrelin displacement, read-out: Ki
[2] = binding activity at the human ghrelin receptor, [125I]-ghrelin displacement, hGHS-R1a/HEK-293 membranes, read-out: Ki
[3] = [125I]-ghrelin displacement, hGHS-R1a HEK-293 membranes, read-out: Binding Activity at the Human Ghrelin Receptor (Ki)
[4] = Table 3E, binding activity at the human ghrelin receptor, class symbols, read-out: Ki

T1 sequence (Q92847 whole entry): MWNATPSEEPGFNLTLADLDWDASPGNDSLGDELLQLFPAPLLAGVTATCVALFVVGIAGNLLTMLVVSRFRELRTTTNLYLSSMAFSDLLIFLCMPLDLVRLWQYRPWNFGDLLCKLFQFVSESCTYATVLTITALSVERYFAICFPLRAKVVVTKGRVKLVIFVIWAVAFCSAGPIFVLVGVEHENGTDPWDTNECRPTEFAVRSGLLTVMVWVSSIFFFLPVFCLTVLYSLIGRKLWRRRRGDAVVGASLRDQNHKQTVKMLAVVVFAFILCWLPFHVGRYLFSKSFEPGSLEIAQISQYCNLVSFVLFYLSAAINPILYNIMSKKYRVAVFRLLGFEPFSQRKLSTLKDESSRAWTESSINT

SMILES	pKi [1]	pKi [2]	also measured
COC(C)C1NCCOc2ccccc2CCCNC(=O)C(Cc2ccc(F)cc2)NC(=O)C(C)N(C)C1=O (stereo not shown) [compound 335]	> 7.00	–	–
CC(C)CC1NCC(C)Oc2ccccc2CCCNC(=O)C(Cc2cccc(Cl)c2)NC(=O)C2(CCCC2)NC1=O (stereo not shown) [compound 438]	–	–	pKi (Table 3D, binding at human ghrelin receptor, [125I]-ghrelin displacement, read-out: Ki): 5.00 to 6.00
CCC(C)C1NCCOc2ccc(Cl)cc2CCCNC(=O)C(Cc2cccc(Cl)c2)NC(=O)C2(CCCC2)NC1=O (stereo not shown) [compound 384]	5.00 to 7.00	–	–
CC(C)CC1NCc2cccc(c2)CCNC(=O)C(Cc2ccccc2)NC(=O)C2(CCCC2)NC1=O (stereo not shown) [compound 107]	–	< 5.00	–
CCCC1C(=O)N(C)C(C)C(=O)NC(Cc2ccccc2)C(=O)NCCCc2ccccc2OCCN1C(C)=O (stereo not shown) [compound 202]	–	–	pKi [3]: < 5.00
CCC(C)C1NCCCCCCCNC(=O)C(Cc2cccc(Cl)c2)NC(=O)C2(CCCC2)NC1=O (stereo not shown) [compound 366]	5.00 to 7.00	–	–
CCCCC1NC(=O)C(CCCC)NC(=O)C(C(C)C)NCCOc2ccccc2C=CCNC1=O (stereo not shown) [compound 12]	–	5.00 to 7.00	–
CC(C)C1NCCOc2ccccc2C=CCNC(=O)C(Cc2ccccc2)NC(=O)C2(Cc3ccccc3C2)NC1=O (stereo not shown) [compound 142]	–	5.00 to 7.00	–
CCC(C)C1NCc2ccccc2CCCCCNC(=O)C(Cc2cccc(Cl)c2)NC(=O)C2(CCCC2)NC1=O (stereo not shown) [compound 362]	5.00 to 7.00	–	–
O=C1NC2(CCCC2)C(=O)NC(Cc2ccccc2)C(=O)NCC=Cc2ccccc2OCCNC1Cc1ccccn1 (stereo not shown) [compound 210]	–	–	pKi [3]: < 6.00
CCC(C)C1NCCOc2ccccc2C=CCNC(=O)C(Cc2ccsc2)NC(=O)C2(CCCC2)NC1=O (stereo not shown) [compound 333]	5.00 to 7.00	–	–
CC(C)C[C@@H]1NCCOc2ccccc2CCCNC(=O)[C@H](Cc2ccccc2)NC(=O)[C@H]2CCCN2C1=O [compound 223]	–	–	pKi [4]: 5.00 to 6.00
CC1CNC(=O)C(Cc2ccc(F)cc2)NC(=O)C(C)N(C)C(=O)C(C2CC2)NCCOc2ccccc2C1 (stereo not shown) [compound 376]	5.00 to 7.00	–	–
CCCC1C(=O)N(C)C(C)C(=O)NC(Cc2ccccc2)C(=O)NCCCc2ccccc2OCCN1C (stereo not shown) [compound 201]	–	–	pKi [3]: 5.00 to 7.00
C[C@@H]1C(=O)N[C@H](Cc2ccc(O)c(C(C)(C)C)c2)C(=O)NCCCc2ccccc2OCCN[C@@H](C2CC2)C(=O)N1C [compound 311]	> 7.00	–	–
CCCC1NCCOc2ccccc2CCCNC(=O)C(Cc2ccccc2)NC(=O)C(CCCCN)NC1=O (stereo not shown) [compound 69]	–	< 5.00	–
O=C1NC2(CCCC2)C(=O)NC(Cc2ccccc2)C(=O)NCC=Cc2ccccc2OCCNC1Cc1c[nH]cn1 (stereo not shown) [compound 219]	–	–	pKi [3]: 5.00 to 7.00
CCC(C)C1NCCOc2ccccc2CCCNC(=O)C(C(c2ccccc2)c2ccccc2)NC(=O)C(C)N(C)C1=O (stereo not shown) [compound 29]	–	7.00 to 8.00	–
CC(C)CC1NCCOc2ccccc2C=CCNC(=O)C2(CCCC2)NC(=O)C2(CCCC2)NC1=O (stereo not shown) [compound 168]	–	5.00 to 7.00	–
CC(C)CC1NCCOc2ccccc2C=CCNC(=O)C(Cc2cccc3ccccc23)NC(=O)C2(CCCC2)NC1=O (stereo not shown) [compound 22]	–	7.00 to 8.00	–
CCC(C)C1NCCOc2cc(F)ccc2CCCNC(=O)C(Cc2cccc(Cl)c2)NC(=O)C2(CCCC2)NC1=O (stereo not shown) [compound 383]	5.00 to 7.00	–	–
CCC(C)C1NCCCCCCCCNC(=O)C(Cc2cccc(Cl)c2)NC(=O)C2(CCCC2)NC1=O (stereo not shown) [compound 363]	5.00 to 7.00	–	pKi (Table 4, binding at human ghrelin receptor, TFA salts unless otherwise noted, read-out: Ki): 6.00 to 7.00
CC(C)C[C@@H]1NCCOc2ccccc2CCCNC(=O)[C@H](Cc2ccccc2)NC(=O)[C@@H]2CCCN2C1=O [compound 222]	–	–	pKi [4]: 5.00 to 6.00
CCCC1NC(=O)C2(CCCC2)NC(=O)C(CC(C)C)NCCOc2ccccc2C=CCNC1=O (stereo not shown) [compound 48]	–	< 5.00	–
CCC(C)C1NCCOc2ccccc2C(C)CCNC(=O)C(Cc2cccc(Cl)c2)NC(=O)C2(CCCC2)NC1=O (stereo not shown) [compound 386]	5.00 to 7.00	–	–
CCCC1NCCOc2ccccc2CCCNC(=O)C(Cc2ccccc2)NC(=O)C(Cc2ccccc2)NC1=O (stereo not shown) [compound 65]	–	5.00 to 6.00	–
CCC(C)C1NCCOCC=CCNC(=O)C(Cc2ccccc2)NC(=O)C(C)N(C)C1=O (stereo not shown) [compound 185]	–	5.00 to 7.00	–
